Like-named read-outs stand apart in the source and are kept apart here.
Key:
chickpea = chickpea roots; seed treatment; petriplates, dark, 24° C., 7 days
Protocol: (§1) Seeds of chickpea, cotton, pinto bean and soybean were treated according to the protocols of Example 1. One day after seed treatment, 10 seeds of each crop variety were plated in 150 mm×15 mm polystyrene petriplates (Fisherband) on 5⅜″ germination paper circle (Anchor Paper Co., Saint Paul, Mn) moistened with 12 ml distilled water. Four petriplates were prepared per treatment as 4 replicates. Petri plates were then placed in the dark in under-counter cabinets in the lab at 24° C. for 7 days. After 7 days, seedlings were removed from the cabinets, exposed to light, and their main roots severed and measured for various root parameters with WinRhizo root scanner (Regent Instruments Inc., WinRhizo Pro 2007). For all statistical analysis, student t-test was applied using JMPv.9 statistical software.

soybean = soybean roots; seed treatment; petriplates, dark, 24° C., 7 days
Protocol: as §1

corn = settings: GSH 100 mg/L seed treatment; petriplates, dark, 24° C., 7 days
Protocol: as §1, with “Instead” for “Seeds”, “growing the seeds in a greenhouse, the seeds” for “chickpea, cotton, pinto bean and soybean”, “grown” for “treated according to the protocols of Example 1. One day after seed treatment, 10 seeds of each crop variety were plated”, “[…]” for “150”

corn seedling growth [1] = settings: for Plant root dry weight / Plant shoot dry weight / Total plant dry weight / Chlorophyll content: 2 weeks after; for Chlorophyll content: SPAD chlorophyll meter; for Plant height: one wk after (8 days after planting)
Protocol: In a clear plastic bag (25 cm×25 cm), 100 gram seeds were treated with 1 ml of water (as control) and 1 mL of the 100, 200, and 500 mg/L treatment solutions separately and shaken vigorously. One day following treatment, seeds were planted in 6″ plastic pots containing sand:perlite 1:1 mix. There were 10 pots/treatment; each pot being a replicate. Plant height was measured 8 days after planting. Plant leaf greenness and final harvest were made 2 weeks after planting. Plant leaf greenness was measured using a SPAD chlorophyll meter (Spectrum Technology, USA).

corn seedling growth [2] = experiment: Effect of GSH and LCO on corn seedling growth (greenhouse pots, WinRhizo); type: in vivo; settings: seed treatment (LCO 10^−8M), harvested after 2 weeks
Protocol: LCO stock solution was prepared by dissolving LCO in 50:50 ethanol/water solvent. Seeds were then treated according to the protocols of Example 1. Seeds were planted 1 day after treatment in greenhouse under artificial lighting in 5'' plastic pots containing 1:1 sand/perlite mix. […] Plants were allowed to grow for 2 weeks and then harvested. A non-destructive harvest was made by washing sand/perlite soil mix under running tap water. After cleaning, each plant was placed on a clear plexiglass-tray containing enough water to spread the roots in liquid. The tray was then placed on the WinRhizo root scanner (Regent Instruments Inc., WinRhizo Pro 2007) for measurement.

With `N[C@@H](CCC(=O)N[C@@H](CS)C(=O)NCC(=O)O)C(=O)O` [GSH, glutathione] the Length (chickpea) was 94.671a cm, the Surface area (chickpea) was 23.142a cm^2 and the Length (soybean) was 146.373a cm. For the same molecule, the Surface area (soybean) was 25.691a cm^2, the “Length, Total” value (corn) was 21.890a* cm and the “Volume, Total” value (corn) was 0.150a* cm^3. For the same molecule, the “Plant root dry weight” value (corn seedling growth [1]; GSH 100 mg/L seed treatment) was 0.244a mg, the “Plant shoot dry weight” value (corn seedling growth [1]; GSH 100 mg/L seed treatment) was 0.3111ab mg and the “Total plant dry weight” value (corn seedling growth [1]; GSH 100 mg/L seed treatment) was 0.555a mg. The Chlorophyll content (corn seedling growth [1]; GSH 100 mg/L seed treatment) was 27.93a, the Plant height (corn seedling growth [1]; GSH 100 mg/L seed treatment) was 12.07a cm and the “Plant root dry weight” value (corn seedling growth [1]; GSH 200 mg/L seed treatment) was 0.231ab mg. For the same molecule, the “Plant shoot dry weight” value (corn seedling growth [1]; GSH 200 mg/L seed treatment) was 0.3116ab mg, the “Total plant dry weight” value (corn seedling growth [1]; GSH 200 mg/L seed treatment) was 0.542a mg and the Chlorophyll content (corn seedling growth [1]; GSH 200 mg/L seed treatment) was 27.55a. The Plant height (corn seedling growth [1]; GSH 200 mg/L seed treatment) was 11.91a cm, the “Plant root dry weight” value (corn seedling growth [1]; GSH 500 mg/L seed treatment) was 0.266b mg and the “Plant shoot dry weight” value (corn seedling growth [1]; GSH 500 mg/L seed treatment) was 0.339a mg. For the same molecule, the “Total plant dry weight” value (corn seedling growth [1]; GSH 500 mg/L seed treatment) was 0.565a mg, the Chlorophyll content (corn seedling growth [1]; GSH 500 mg/L seed treatment) was 27.83a and the Plant height (corn seedling growth [1]; GSH 500 mg/L seed treatment) was 11.66ab cm. The “Coleoptile Length” value (corn seedling growth [2]) was 9.814b cm, the “Coleoptile Surface area” value (corn seedling growth [2]) was 1.789b cm^2 and the “Coleoptile Volume” value (corn seedling growth [2]) was 0.236b cm^2. The “Root Diameter” value (corn seedling growth [2]) was 0.653a mm, the “Root Length” value (corn seedling growth [2]) was 150.89a cm and the “Root Surface area” value (corn seedling growth [2]) was 30.47a cm^2. For the same molecule, the “Root Volume” value (corn seedling growth [2]) was 0.494a cm^2.
